The subject of assay [1] is TynA-FeaR sensors (best performing variants). In words: TynA-FeaR sensor activity and specificity in richer media, amines and carboxylic acids. Type of assay: cell-based, E. coli. The note with it: 1 mM, 24 h; minimal medium with casamino acids and LB medium; FIG. 29. From the text: FIG. 29A-FIG. 29B. TynA-FeaR sensor activity and specificity in richer media, related to FIG. 6A-FIG. 6E. […] PtynA was regulated by the specified variants of TynA and FeaR. The response of the G494S TynA mutant sensors was not determined (ND) for DOPAC, PAA, HPAA, or IAA. Values and error bars are the average and standard deviation of biological triplicate, respectively.
To further confirm the specificity of the best performing sensors, the response of each to the four amines and the four respective carboxylic acids, 3,4-dihydroxyphenylacetic acid (DOPAC), phenylacetic acid (PAA), 4-hydroxyphenylacetic acid (HPAA), and indole-3-acetic acid (IAA) was tested in minimal medium with casamino acids and LB medium (see e.g., FIG. 29A-FIG. 29B). […] All mutant sensors remained specific to PEA or Tyra in minimal medium with casamino acids.
(§1) Flow cytometry was performed as previously described. […] Cytometry data was gated by forward and side scatter.

In a further assay the target is T1, E274Q+D103S TyrR (Escherichia coli, UniProt P07604, D103S/E274Q).
T1 construct: expressed in transfected cells; host or cells: E. coli Nissle 1917 (EcN), plasmid pAGR159
The assay is described as follows: cell-based. The note with it: ligand alone, listed as Tyr. The class given is cell-based, E. coli. How it is done:
(§2) Everything but (Eb) medium was prepared by supplementing M9 minimal medium with 1 mM MgSO4, […]), 0.4% w/v glucose, and all non-aromatic amino acids (0.8 mM alanine, 5 mM arginine, 0.4 mM asparagine, 0.4 mM aspartate, 0.1 mM cysteine, 0.6 mM glutamate, 0.6 mM glutamine, 0.8 mM glycine, 0.2 mM histidine, 0.4 mM isoleucine, 0.8 mM leucine, 0.4 mM lysine, 0.2 mM methionine, 0.4 mM proline, 10 mM serine, 0.4 mM threonine, and 0.6 mM valine). […] Experimental cultures were prepared by diluting overnight cultures 200× into 0.6 mL fresh Eb medium supplemented with the respective ligands (Phe and Tyr) in 2 mL 96-deep well plates (Eppendorf, Hamburg, Germany). Cultures were grown for 8 h at 37° C. and 250 rpm before sampled for fluorimetry or flow cytometry analysis. All medium was supplemented with the relevant antibiotics for plasmid maintenance ([…]).
(§3) […] culture samples were collected and transferred to 96-well assay microplates (clear, flat bottom black, Greiner Bio-One). The fluorescence and culture absorbance (Abs) were measured using a Tecan microplate reader (Infinite M200 Pro) as previously described. The fluorescence of GFP was measured with an excitation at 483 nm and emission at 530 nm. The Abs of the samples was measured at 600 nm. The measured fluorescence was normalized by dividing by the Abs and subtracting the same ratio obtained from non-fluorescent wild-type cells (Equation 1).
as §1

Another assay addresses T2, E274Q+T14V TyrR (Escherichia coli, UniProt P07604, E274Q/T14V).
T2 construct: expressed in transfected cells; host or cells: E. coli Nissle 1917 (EcN), plasmid pAGR157
The assay is described as follows: cell-based. Type of assay: cell-based, E. coli. The note with it: ligand alone, listed as Tyr. As to the method:
as §2, §3, §1

A further assay concerns the target T3, R10F TyrR (Escherichia coli, UniProt P07604, R10F).
T3 construct: expressed in transfected cells; host or cells: E. coli Nissle 1917 (EcN), plasmid pAGR473
In words: cell-based. The class given is cell-based, E. coli. As to the method:
as §2, §3, §1

For the next assay, the target named is T4, wild-type TyrR (Escherichia coli, UniProt P07604).
T4 construct: tyrR (WT); expressed in transfected cells; host or cells: E. coli Nissle 1917 (EcN)
The assay is described as follows: cell-based. Type of assay: cell-based, E. coli. As to the method: as §2, §3, §1

Assay [2] relates to G494S TynA with A81T FeaR. The class given is cell-based, E. coli MG1655. The note with it: G494S*; 24 h; FIG. 4C. How it is done: as §1
Assay [3] deals with wild-type TynA and A81L FeaR. In words: microbe, parasite or virus in culture. The class given is cell-based, E. coli MG1655. As to conditions: A81L FeaR; 24 h; FIG. 5C. As to the method: as §1
Another assay relates to PtynA. The assay is described as follows: Ligand specificity of 20 FeaR variants at the 81st position with wild-type TynA, fluorescence from PtynA. As to conditions: 0.25 mM DA, PEA, Tyra, Trypta, 24 h. The class given is cell-based, E. coli.
Text: FIG. 5A-FIG. 5D. Engineering FeaR to identify improved phenylethylamine-specific sensors (A) Computationally predicted ligand-binding region of FeaR. Key residues are shown with (magenta) and without (green) phenylethylamine-aldehyde (PEA-aldehyde; cyan) complexed. The structure was predicted using the Robetta web server. Ligand docking was modeled using the Rosetta Ligand Docking Server hosted by ROSIE. The image was generated using PyMOL. […] PtynA was regulated by wild-type TynA and 20 different FeaR variants with the specified amino acid in the 81st position. Residues for each group are listed from left to right in order of increasing size. Non-zero values and error bars are the average and standard deviation of biological triplicate, respectively. Variants with significant expression in response to PEA were determined by unpaired t tests (p<0.05). (C) Transfer curve of PtynA after 24 h of induction with DA, PEA, Tyra, and Trypta. PtynA was regulated by wild-type TynA and the A81L FeaR mutant. Points represent experimental data while the line represents the fitted curve (see e.g., TABLE 2). […] Values and error bars are the average and standard deviation of biological triplicate, respectively. (D) Reorganization of […] with respect to the size and hydropathy index of the 81st residue (see e.g., TABLE 3). The blue area represents characteristic values that permit binding of Tyra. See also FIG. 20-FIG. 25.
Noting the PEA selectivity given by the A81T mutation and the smallest size of the PEA-aldehyde (no OH group), followed by that of Tyra—(1 OH), DA—(2 OHs), and Trypta—(additional 5-membered ring) aldehyde (see e.g., FIG. 3A), it was hypothesized that small residues, including alanine as in wild-type FeaR, would cause ligand promiscuity, with ligand size-dependent response as shown in FIG. 3D. Slightly larger residues such as threonine would have improved selectivity toward the smallest PEA-aldehyde, but much larger or charged residues may fully eliminate ligand binding. It was also hypothesized that the hydropathy index of the 81st residue may also play a role in the sensor's performance due to differences in ligand polarities caused by the different number of hydroxyl groups. […] To test this prediction, A81 was mutated and each mutant was paired with the promiscuous wild-type TynA (see e.g., FIG. 5B). Consistent with the predictions, A81L, A81P, A81 I, and A81N were identified as PEA-specific variants, with 580-fold induction for the A81L sensor (see e.g., FIG. 5C). […] As predicted a clear pattern between the identity of residue 81 and ligand selectivity was observed (see e.g., FIG. 5D, TABLE 3).
as §1

The mark [4] stands for this setting: pAGR473, FIG. 2G, 8 h, repressible.
Where [5] appears, read: wild-type TyrR, pAGR010, FIG. 1C, 8 h.

Several values for one entry are separate records, joined by “and”; a condition that tells them apart may be missing. Equal entries are not always repeated. Entries after “also recorded” stand apart in the source; their conditions may differ.

T4 sequence (P07604 whole entry): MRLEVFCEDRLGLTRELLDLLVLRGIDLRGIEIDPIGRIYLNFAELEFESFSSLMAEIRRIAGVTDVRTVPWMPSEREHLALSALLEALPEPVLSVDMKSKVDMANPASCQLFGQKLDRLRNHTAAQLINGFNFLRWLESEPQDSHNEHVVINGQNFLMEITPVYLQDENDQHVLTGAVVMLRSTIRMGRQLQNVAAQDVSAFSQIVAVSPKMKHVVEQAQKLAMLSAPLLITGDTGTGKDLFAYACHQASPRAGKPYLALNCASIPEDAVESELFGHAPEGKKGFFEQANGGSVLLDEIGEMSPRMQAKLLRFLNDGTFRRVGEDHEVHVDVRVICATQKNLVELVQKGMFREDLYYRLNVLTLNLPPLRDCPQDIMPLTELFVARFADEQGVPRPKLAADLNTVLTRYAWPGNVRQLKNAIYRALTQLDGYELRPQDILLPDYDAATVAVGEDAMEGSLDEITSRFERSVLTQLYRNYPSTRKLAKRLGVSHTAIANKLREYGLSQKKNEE
T3 sequence (P07604 whole entry R10F): as the sequence (P07604 whole entry) above, with R10F counted along it
T2 sequence (P07604 whole entry T14V/E274Q): as the sequence (P07604 whole entry) above, with T14V, E274Q counted along it
T1 sequence (P07604 whole entry D103S/E274Q): as the sequence (P07604 whole entry) above, with D103S, E274Q counted along it

For `O=C(O)Cc1ccc(O)c(O)c1` [DOPAC, 3,4-dihydroxyphenylacetic acid], in assay [1], the “response of the sensors” value was “No sensors significantly responded”.

For `O=C(O)Cc1ccc(O)cc1` [HPAA, 4-hydroxyphenylacetic acid], the “response of the sensors” value in assay [1] is listed as “No sensors significantly responded”.

For the molecule `O=C(O)Cc1c[nH]c2ccccc12` [IAA, indole-3-acetic acid], the “response of the sensors” value in assay [1] is “No sensors significantly responded”.

Take `O=C(O)Cc1ccccc1` [PAA, phenylacetic acid]: the “response of the sensors” value in assay [1] was “No sensors significantly responded”.

Take `N[C@@H](Cc1ccc(O)cc1)C(=O)O` [Tyrosine, tyrosine]: the “response of PtyrP” value at E274Q+D103S TyrR and at E274Q+T14V TyrR was “lack of response; also recorded: no apparent response” in each case. For the same molecule, the EC50 is 50 µM and 47 µM at R10F TyrR (KA (half maximal constant), pAGR473, FIG. 2G, 8 h, repressible); 26 µM at wild-type TyrR (wild-type TyrR, pAGR010, FIG. 1C, 8 h, read-out: KA (half maximal constant)). Also, the “fold repression of PtyrP” value on R10F TyrR (independent of the presence of Phe, listed as Tyr) was ~12 fold and 15 fold; at wild-type TyrR (overexpression of wild-type TyrR) it was 59 fold. For the same molecule, the Fmax is given as 3210 at R10F TyrR (setting [4]) and 2470 on wild-type TyrR (setting [5]). The figures for the Fmin on R10F TyrR (setting [4]) and at wild-type TyrR (setting [5]) were 279 and 38.1, respectively. Besides, the “n (Hill coefficient)” value at R10F TyrR (setting [4]) amounted to 2.3; at wild-type TyrR (setting [5]), 1.9. Also, the response result in assay [2] and in assay [3] was “lack of response” throughout.

B1: Leucine (L): FeaR variant with leucine in the 81st position, paired with wild-type TynA (protein, UniProt Q47129 1-301, looked up, variant A81L)
Transcriptional activator FeaR: MNPAVDNEFQQWLSQINQVCGNFTGRLLTERYTGVLDTHFAKGLKLSTVTTSGVNLSRTWQEVKGSDDAWFYTVFQLSGQLIMEQDERQVQIGAGDITLLDASRPCSLYWQESSKQISLLLPRTLLEQYFPHQKPICAERLDADLPMVQLSHRLLQESMNNPALSETESEAALQAMVCLLRPVLHQRESVQPRRERQFQKVVTLIDDNIREEILRPEWIAGETGMSVRSLYRMFADKGLVVAQYIRNRRLDFCADAIRHAADDEKLAGIGFHWGFSDQSHFSTVFKQRFGMTPGEYRRKFR
As for B1, in the assay on PtynA, the Phenotype entry was “PEA specific” and the Selectivity entry is given as “PEA only”.

B2: Glutamine (Q): FeaR variant with glutamine in the 81st position, paired with wild-type TynA (protein, UniProt Q47129 1-301, looked up, variant A81Q)
Transcriptional activator FeaR: MNPAVDNEFQQWLSQINQVCGNFTGRLLTERYTGVLDTHFAKGLKLSTVTTSGVNLSRTWQEVKGSDDAWFYTVFQLSGQQIMEQDERQVQIGAGDITLLDASRPCSLYWQESSKQISLLLPRTLLEQYFPHQKPICAERLDADLPMVQLSHRLLQESMNNPALSETESEAALQAMVCLLRPVLHQRESVQPRRERQFQKVVTLIDDNIREEILRPEWIAGETGMSVRSLYRMFADKGLVVAQYIRNRRLDFCADAIRHAADDEKLAGIGFHWGFSDQSHFSTVFKQRFGMTPGEYRRKFR
B2: in the assay with PtynA, the Phenotype result is given as “No activity” and the Selectivity entry is listed as “No activity”.

B3: Phenylalanine (F): FeaR variant with phenylalanine in the 81st position, paired with wild-type TynA (protein, UniProt Q47129 1-301, looked up, variant A81F)
Transcriptional activator FeaR: MNPAVDNEFQQWLSQINQVCGNFTGRLLTERYTGVLDTHFAKGLKLSTVTTSGVNLSRTWQEVKGSDDAWFYTVFQLSGQFIMEQDERQVQIGAGDITLLDASRPCSLYWQESSKQISLLLPRTLLEQYFPHQKPICAERLDADLPMVQLSHRLLQESMNNPALSETESEAALQAMVCLLRPVLHQRESVQPRRERQFQKVVTLIDDNIREEILRPEWIAGETGMSVRSLYRMFADKGLVVAQYIRNRRLDFCADAIRHAADDEKLAGIGFHWGFSDQSHFSTVFKQRFGMTPGEYRRKFR
As to B3, in the assay on PtynA, the Phenotype entry was “No activity” and the Selectivity result is on record as “No activity”.

The values above are taken from patent US20220372585A1, “Sensors for Aromatic Compounds and Methods of Making and Using Same” (Washington University, priority 2021, published 2022).
